Measured values from patent US4062862A, “5-Benzyl-2-oxazolidone derivatives and a process for producing the same” (Nippon Chemiphar Co., Ltd., priority 1975, dated 1977).

Tests used:
pain threshold in mice = assay: Analgetic effect, Pressure Test (pain threshold, tail pressure); format: in vivo, dd Male mice; conditions: 100 mg/kg oral; for Pain threshold, Mean ± SE, 30 min / Pain threshold, Mean ± SE, 60 min / Pain threshold, Mean ± SE, 90 min / Pain threshold, Mean ± SE, 120 min: *p <0.05, **p <0.01, ***p <0.001
Protocol: dd Male mice weighing 18 to 22 g (pain threshold ranging within 30 to 50 mmHg), one group consisting of 10 animals, were given orally the test compounds suspended in 0.2% carboxymethylcellulose solution in a dose of 100mg/kg-body weight. Pain threshold were measured at 30, 60, 90 and 120 minutes after the administration of the test compounds while pain reaction occurring by application of pressure on tails of animals was referred to as indication. Aminopyrine was used as active placebo.

[1] = test system: acetic acid-induced writhing syndrome in mice; assay: Analgetic effect, Acetic Acid-Induced Writhing Method; format: in vivo, dd Male mice; conditions: 100 mg/kg oral, 30 min before acetic acid; for Writhing syndrome (number within 20 minutes): control 52.1 ± 2.7; for Inhibitory per cent (writhing): vs control
Protocol: dd Male mice weighing 18 to 22g, one group consisting of 10 animals, were given the intraperitoneal injection of 0.6% acetic acid in a dose of 0.1ml/10g-body weight. The number of writhing syndromes occurring within 20 minutes after injection was observed. Animals were orally given the test compounds suspended in 0.2% carboxymethylcellulose solution 30 minutes before the injection of acetic acid in a dose of 100mg/kg-body weight. Inhibitory percent was estimated in comparison with a control given the 0.2% carboxymethycellulose solution only. Aminopyrine was used as active placebo.

mice [2] = assay: Muscular relaxing effect, Righting Reflex Test (R.r), oral, mice; format: in vivo, dd Male mice; conditions: Mus musculus, oral, mice; for ED50: Table 1, maximum response 15-180 min, Litchfield Wilcoxon; for responders at 500 mg/kg: Table 2, read-out: Inhibition percent of the central muscular relaxing effect, R.r (Righting Reflex Test)
Protocol: (§1) dd Male mice weighing 18 to 22 g, one group consisting of 10 animals, were orally given the compounds (I) to (V) as indicated below suspended in 0.2% carboxymethylcellulose solution in a dose of 0.25ml/10g-body weight. Mephenesin was used as active placebo.

mice [3] = assay: Muscular relaxing effect, Inclined Plane Test (I.P), oral, mice; format: in vivo, dd Male mice; conditions: Mus musculus, oral, mice; for ED50: Table 1, maximum response 15-180 min, Litchfield Wilcoxon; for responders at 500 mg/kg: Table 2, read-out: Inhibition percent of the central muscular relaxing effect, I.P (Inclined Plane Test)
Protocol: as §1
Mice were placed on veneer inclined at an angle of 30° and on wire-netting inclined at an angle of 60° of which one division is 5 mm square, and mice sliding down were observed as positive, in comparison with normal behavior.

mice [4] = assay: Muscular relaxing effect, Pinna Reflex Test (P.r), oral, mice; format: in vivo, dd Male mice; conditions: Mus musculus, oral, mice; for ED50: Table 1, maximum response 15-180 min, Litchfield Wilcoxon; for responders at 500 mg/kg: Table 2, read-out: Inhibition percent of the central muscular relaxing effect, P.r (Pinna Reflex Test)
Protocol: as §1
Pinna reflex was observed by using mandolin wire for 1/4 injection syringe.

mice [5] = assay: Muscular relaxing effect, Corneal Reflex Test (C.r), oral, mice; format: in vivo, dd Male mice; conditions: Mus musculus, oral, mice; for ED50: Table 1, maximum response 15-180 min, Litchfield Wilcoxon; for responders at 500 mg/kg: Table 2, read-out: Inhibition percent of the central muscular relaxing effect, C.r (Corneal Reflex Test)
Protocol: as §1
Corneal reflex was observed by using mandolin wire for 1/4 injection syringe.

mice [6] = assay: Muscular relaxing effect, Rotarod Method (R.R), oral, mice; format: in vivo, dd Male mice; conditions: Mus musculus, oral, mice; for ED50: Table 1, maximum response 15-180 min, Litchfield Wilcoxon; for responders at 500 mg/kg: Table 2, read-out: Inhibition percent of the central muscular relaxing effect, R.R (Rotarod Method)
Protocol: as §1
Mice were placed on Rotar Load (made by Natsume Seisakusho Co., Ltd.) having a diameter of 3 cm rotating at a speed of 10 rpm and falling (occurring within 3 minutes) was observed.

[7] = test system: carrageenan-induced edema in rats; assay: Antiinflammatory effect on carrageenan-induced edema; format: in vivo, Wistar male rats; conditions: 200 mg/kg oral
Protocol: […] One hour after the administration of the test compounds, the hind paw was given a subcutaneous injection of 0.05ml of 0.5% carrageenan saline solution, and volume of the hind paw was measured at 1, 2, 3, 4, 5 and 6 hours after the injection of carrageenan by a volume differential meter. Inhibitory percent was calculated based on the swelling in the control. Phenybutazone was used as active placebo.

mice [8] = assay: Muscular relaxing effect, Traction Test (T.T), oral, mice; format: in vivo, dd Male mice; conditions: Mus musculus, oral, mice; for ED50: Table 1, maximum response 15-180 min, Litchfield Wilcoxon; for responders at 500 mg/kg: Table 2, read-out: Inhibition percent of the central muscular relaxing effect, T.T (Traction Test)
Protocol: as §1

Compound | Pain threshold Increase Ratio (pain threshold in mice) | Pain threshold, Mean ± SE, 30 min (pain threshold in mice) [mmHg] | Pain threshold, Mean ± SE, 60 min (pain threshold in mice) [mmHg] | Pain threshold, Mean ± SE, 90 min (pain threshold in mice) [mmHg] | Pain threshold, Mean ± SE, 120 min (pain threshold in mice) [mmHg] | Writhing syndrome (number within 20 minutes) [1] | Inhibitory per cent (writhing) [1] [per cent] | ED50 (mice [2]) [mg/kg] | ED50 (mice [3]) [mg/kg] | ED50 (mice [4]) [mg/kg] | ED50 (mice [5]) [mg/kg] | ED50 (mice [6]) [mg/kg] | Inhibitory per cent, carrageenan-induced edema, 3 hrs. ([7]; Table 5) [per cent] | Inhibitory per cent, carrageenan-induced edema, 6 hrs. ([7]; Table 5) [per cent] | ED50 (mice [8]) [mg/kg] | further results
Cc1c(N(C)C)c(=O)n(-c2ccccc2)n1C [Aminopyrine, reference compound] | 2.20 | 75.7 ± 5.4 | 67.3 ± 5.4 | 70.8 ± 5.3 | 53.1 ± 4.5 | 19.3 ± 6.0 | 62.9 |  |  |  |  |  |  |  |  | 
O=C1NCC(Cc2ccccc2Cl)O1 (stereo not shown) [IV, 5-(o-chlorobenzyl)-2-oxazolidone] | 1.89 | 69.8 ± 4.5 | 56.7 ± 5.3 | 53.3 ± 5.5 | 51.8 ± 6.2 | 12.8 ± 3.6 | 75.4 | 660 | 330 | < 500 | 560 | 210 | 16.8 | 15.9 | 390 | 
O=C1NCC(Cc2ccccc2)O1 (stereo not shown) [I, 5-benzyl-2-oxazolidone] | 1.34 | 58.2 ± 3.2 | 57.8 ± 3.2 | 51.5 ± 2.8 | 50.7 ± 2.2 | 42.3 ± 5.9 | 18.9 | 1100 | 940 | 800 |  | 460 | 49.5 | 13.0 | 660 | 
COc1ccccc1CC1CNC(=O)O1 (stereo not shown) [III, 5-(o-methoxybenzyl)-2-oxazolidone] | 1.20 | 43.7 ± 4.9 | 46.5 ± 4.2 | 42.9 ± 3.1 | 39.2 ± 3.6 | 39.1 ± 6.4 | 24.9 | 500 | 380 | 380 | 500 | 175 | 32.7 | 23.3 | 350 | 
O=C1NCC(Cc2ccccc2C(F)(F)F)O1 (stereo not shown) [VIII, 5-(o-trifluoromethylbenzyl)-2-oxazolidone] | 1.28 | 62.0 ± 4.6 | 60.2 ± 3.0 | 57.5 ± 3.2 | 52.9 ± 2.0 |  |  |  |  |  |  |  |  |  |  | responders at 500 mg/kg (mice [2]): 10%; responders at 500 mg/kg (mice [3]): 40%; responders at 500 mg/kg (mice [4]): 10%; responders at 500 mg/kg (mice [5]): 0%; responders at 500 mg/kg (mice [6]): 90%; Inhibitory per cent, carrageenan-induced edema, 1 hr ([7]; Table 6, 1 hr): 21.7 per cent; Inhibitory per cent, carrageenan-induced edema, 2 hrs. ([7]; Table 6, 2 hrs.): 49.7 per cent; Inhibitory per cent, carrageenan-induced edema, 3 hrs. ([7]; Table 6): 27.4 per cent; Inhibitory per cent, carrageenan-induced edema, 4 hrs. ([7]; Table 6, 4 hrs.): 35.6 per cent; Inhibitory per cent, carrageenan-induced edema, 5 hrs. ([7]; Table 6, 5 hrs.): 9.2 per cent; Inhibitory per cent, carrageenan-induced edema, 6 hrs. ([7]; Table 6): 0.5 per cent; responders at 500 mg/kg (mice [8]): 40%
O=C1NCC(Cc2ccccc2Br)O1 (stereo not shown) [XII, 5-(o-bromobenzyl)-2-oxazolidone] | 1.24 | 59.6 ± 3.4 | 59.4 ± 3.7 | 57.5 ± 1.9 | 52.7 ± 2.1 |  |  |  |  |  |  |  |  |  |  | responders at 500 mg/kg (mice [2]): 0%; responders at 500 mg/kg (mice [3]): 80%; responders at 500 mg/kg (mice [4]): 20%; responders at 500 mg/kg (mice [5]): 0%; responders at 500 mg/kg (mice [6]): 100%; responders at 500 mg/kg (mice [8]): 60%
CN1CC(Cc2ccccc2)OC1=O (stereo not shown) [II, 5-benzyl-3-methyl-2-oxazolidone] | 1.36 | 49.1 ± 4.5 | 49.2 ± 3.3 | 43.5 ± 4.7 | 36.3 ± 3.9 | 45.9 ± 4.8 | 11.9 | 810 | 500 | 520 | 1100 | 340 | 33.3 | 19.7 | 500 | 
O=C1NCC(Cc2ccc(Cl)cc2)O1 (stereo not shown) [Compound V, 5-(p-chlorobenzyl)-2-oxazolidone] | 1.15 | 54.6 ± 4.9 | 51.3 ± 4.3 | 48.8 ± 2.7 | 48.2 ± 1.7 | 45.5 ± 5.3 | 12.8 | 750 | 520 | 530 | 750 | 240 | 30.6 | 22.8 | 380 | 
